One may read the IC50 as the concentration that gives 50% inhibition.

Experiment [1] relates to A549. Nature of the experiment: Antiproliferative activity against human A549 cells assessed as inhibition of cell growth by secondary round CCK8 assay. The format is functional, cell-based.
In experiment [2] the test system is HT-29. Nature of the experiment: Antiproliferative activity against human HT-29 cells assessed as inhibition of cell growth by secondary round CCK8 assay.
Experiment [3] relates to HepG2. Nature of the experiment: Antiproliferative activity against human HepG2 cells assessed as inhibition of cell growth by secondary round CCK8 assay. It is filed as functional, cell-based. (In general: Formazan colour is commonly taken as a measure of viable cells.)
Experiment [4] has as its system A549. Nature of the experiment: Antiproliferative activity against human A549 cells assessed as inhibition of cell growth by first round CCK8 assay. It is filed as functional, cell-based.
Experiment [5] deals with HT-29. Nature of the experiment: Antiproliferative activity against human HT-29 cells assessed as inhibition of cell growth by first round CCK8 assay. The format is functional, cell-based.
The subject of experiment [6] is HepG2. Nature of the experiment: Antiproliferative activity against human HepG2 cells assessed as inhibition of cell growth by first round CCK8 assay. It is filed as functional, cell-based.
The next experiment concerns the target Tubulin. Nature of the experiment: Inhibition of tubulin polymerization (unknown origin). It is filed as protein-complex assay, Homo sapiens.

Consider `C/C=C\CC(C/C=C\NC(=O)[C@@H](NC(=O)\C=C/C=C\C(C)=C\[C@H](C)[C@@H]1CC=C(OC)C(=O)O1)C(C)(C)C)OC(N)=O` (some centres not stated), for which the IC50 in the experiment with A549 [1] is less than 0.2 nM; in the experiment on HT-29 [2] it was less than 0.2 nM; with HepG2 [3], 0.36 nM; in the experiment with A549 [4], 0.72 nM; with HT-29 [5] it was 0.27 nM; in the experiment with HepG2 [6], 1.64 nM. The compound further returned an IC50 on Tubulin of 3100 nM.
Turning to `COC1=CC[C@@H]([C@@H](C)/C=C(C)/C=C\C=C/C(=O)N[C@H](C(=O)N/C=C\CCOC(N)=O)C(C)(C)C)OC1=O`, the IC50 in the experiment with A549 [4] is 2.4 nM; with HT-29 [5], 1.1 nM; with HepG2 [6], 5.8 nM.
Regarding `CC(=O)O[C@H]1C(=O)[C@@]2(C)[C@H]([C@H](OC(=O)c3ccccc3)[C@]3(O)C[C@H](OC(=O)[C@H](O)[C@@H](NC(=O)c4ccccc4)c4ccccc4)C(C)=C1C3(C)C)[C@]1(OC(C)=O)CO[C@@H]1C[C@@H]2O` [PACLITAXEL], in the experiment with HepG2 [3], the IC50 turned out to be 10.1 nM.
Turning to `COC1=CC[C@@H]([C@@H](C)/C=C(C)/C=C\C=C/C(=O)N[C@H](C(=O)N/C=C(/C)CCOC(N)=O)C(C)(C)C)OC1=O`, at Tubulin, the IC50 was determined as 16000 nM.

The values above are taken from ChEMBL document CHEMBL5032517, “Synthesis of the analogs of plocabulin and their preliminary structure-activity relationship study” (Bioorg Med Chem Lett, 2021).
